Holding throughout (type): functional, cell-based
The test system of test [1] is HeLa. The test is described as follows: Induction of morphological alteration in human HeLa cells at 50 uM measured within 3 hrs by real-time digital microscopy.
For test [2], the system named is HeLa. The test is described as follows: Cytotoxicity against human HeLa cells incubated for 72 hrs by WST-8 assay. Background: Formazan colour is commonly taken as a measure of viable cells.
Test [3] has as its system HeLa. The test can be described thus: Induction of apoptosis in human HeLa cells at 50 uM assessed as nuclear fragmentation incubated for 72 hrs by Hoechst 33342 staining based microscopic method.
For test [4], the system named is HeLa. The test can be described thus: Induction of apoptosis in human HeLa cells at 50 uM measured within 24 hrs by real-time digital microscopy.
In test [5] the test system is HeLa. The test is described as follows: Induction of apoptosis in human HeLa cells at 50 uM assessed as appearance of elongated cellular morphology incubated for 72 hrs by Hoechst 33342 staining based microscopic method.
For test [6], the system named is HeLa. The test can be described thus: Inhibition of cell division in human HeLa cells at 50 uM measured within 3 hrs by real-time digital microscopy.

The values below come from ChEMBL document CHEMBL4610071, “Ancistrosecolines A-F, Unprecedented seco-Naphthylisoquinoline Alkaloids from the Roots of Ancistrocladus abbreviatus, with Apoptosis-Inducing Potential against HeLa Cancer Cells” (J Nat Prod, 2020).

The source made the active and inactive calls. The calls are words filed in the database; no cut-off is given here.

For orientation: IC50 means the concentration needed to halve the response being measured. A low value points to higher potency. For the molecule `COc1cc(C[C@H](C)N)cc(O)c1-c1ccc(OC)c2c(OC)cc(C)cc12` (atropisomer P), the outcome in the test on HeLa [1], in the test on HeLa [3], with HeLa [4] and with HeLa [5] was Active. Besides, in the test with HeLa [2], the Activity result was “Dose-dependent effect”. Also, the midpoint of inhibition in the test on HeLa [2], the IC50, lay at 11.2 µM. In the test on HeLa [6], the inhibition entry was “Active”.

For `CN[C@@H](C)Cc1cc(O)c(-c2c(C)cc(OC)c3c(OC)cccc23)c(OC)c1` (atropisomer P), in the test on HeLa [2], it took 52.6 µM to reach half-maximal inhibition (IC50).

Consider `COc1cc(C[C@H](C)N)cc(O)c1-c1c(C)cc(OC)c2c(OC)cccc12` (atropisomer P), for which the IC50 in the test on HeLa [2] came out at 72.4 µM.
